Common to all, as to format: in vivo
Assay [1] relates to male mice of BALB/c line. Description: Passive Avoidance of mice in the Shuttle Chamber, memory disturbed by Scopolamine. Particulars: Scopolamine 0.3 mg/kg, intraperitoneally 30 minutes before training; FIG. 1-3. How it is done:
Nootropic action (enhancement of memory disturbed by Scopolamine) of compounds of the general formula 1 in the test “Passive Avoidance of mice in the Shuttle Chamber”. A shuttle chamber (Ugo Basile, Italy) consisted of two sections was used. […] The sections were connected through a hole which could be overlapped by vertical door. The floor of the dark section was made of transverse metal bars on which DC current impulses could be fed. Experiments were carried out in aged male mice of BALB/c line weighing 20-25 grams.
On the first day of the experiment 30 minutes before training mice were injected intraperitoneally with physiological solution, Scopolamine (0.3 mg/kg), or Scopolamine in combination with compound 1.5(1). Each group consisted of 8 animals at least. The animals were placed in the light section, and latent period of the first entry into the dark chamber was registered. Then the vertical door was closed and the animal was punished by 0.6 mA DC current for 3 seconds. After that the animal was taken back to its home cage. In 22-24 hours the same animal was placed again in the light section of the shuttle chamber and latent period of its first entry into the dark section, the total time of its stay in the light section and the number of entries into dark section were registered. Each monitoring lasted for 5 minutes. […]

The test system of assay [2] is male mice of BALB/c line. Description: Mice Behavior in the Elevated Plus Maze. As to conditions: 5 minutes, FIG. 7-9. As for the experimental part:
Anxiolytic (tranquilizing) action of compounds of the general formula 1 in “Mice Behavior in the Elevated Plus Maze” test. Compounds 1.1(9), 1.5 (1) and 1.8(7) were employed in the experiments. Arm length was 30 cm, width—5 cm, wall hight—15 cm. Two opposite arms were closed from both sides and end surfaces with transparent plexiglass; two others—lighted and opened. A mouse was placed in the maze center, and over a period of 5 minutes the number of opened and closed arms entries and duration of opened and closed arm entries were registered. […] Being in normal state animals avoid opened arms (index of preference makes 0.2-0.3). Compounds with anxiolytic activity (tranquilizing activity) run this value up to 0.5-0.6 and more, and also decrease the number of defecations without changing overall physical activity (general number of arm entries).

The subject of assay [3] is male mice of BALB/c line. Description: Porsolt's Forced Swim Test. Particulars: after 4 days administration in doses of 1 mg/kg; last 5 minutes of 15 min test; FIG. 12. As for the experimental part: Antidepressant action of antagonists of the general formula 1 in Porsolt's Forced Swim Test. The test apparatus represented a plastic vessel filled with water up to height of 18 cm at 20-22° C. Experiments were carried out in aged male mice of BALB/c line weighing 20-24 grams. An animal was placed in water and for 15 minutes the duration of immobile hanging in water—so named behavioural despaire which is considered to be a measure of depressively-like state, was registered. The last 5 minutes of the test were used for estimation. Automated computerized detection of motion with video system and Any-maze program were used in test.

The subject of assay [4] is male mice of BALB/c line. The experiment in a line: Passive Avoidance of mice in the Shuttle Chamber, memory disturbed by MK-801. As to conditions: MK-801 0.1 mg/kg, intraperitoneally 30 min before training; FIG. 4-6.
Assay [5] deals with Mice of SHK line. The experiment in a line: Prepulse inhibition of the startle response in mice (Apomorphine model). Particulars: 1 mg/kg, 60 minutes before the test; FIG. 11. How it is done:
Antipsychotic activity of compounds of the general formula 1 in “Prepulse inhibition of the startle response in mice” test. Mice of SHK line weighing about 24-30 g were used in the test. Experiments were carried out during light period of animal's diurnal. Apomorphine hydrochloride and Haloperidol were received from Sigma Chemicals Company, (USA). Apomorphine hydrochloride was dissolved in 0.1% solution of ascorbic acid prepared with sterilized water; it was introduced subcutaneously 15 minutes before the test. Haloperidol was dissolved in sterilized water using emulsifier Twin 80, it was introduced intraperitoneally 60 minutes before the test. Compound 1.5(1) was dissolved in sterilized water, it was introduced subcutaneously 60 minutes before the test. Injection volume was 10 ml/kg. Solution of ascorbic acid prepared with sterilized water and Twin 80 were injected to control group of animals.
The test instrument consisted of a chamber made of transparent plexiglass (manufacturer—Columbia Instruments Company, USA) and placed on a platform; the latter was lodged inside the sound insulating chamber. High frequency sound column transmitting acoustic stimulus was located 2 cm away from the platform. […] Level of background noise made up 65 dB. Each animal received 4 stimuli of single testing (pulse) stimulus of 50 ms duration and 105 dB or prepulsory stimulus (pre-pulse) of 20 ms duration and 85 dB, after which in 30 ms pulse stimulus of 50 ms duration and 105 dB followed. Time interval between repeated pulse or prepulse in combination with pulse stimuli made up 10 s. Inhibition of the startle in reply to prepulse-plus-pulse stimulus was calculated in percentage towards amplitude of startle in response to isolated pulse stimulus. Administration of Apomorphine, which is used in experiments on animals for modelling of psychoto-like conditions, caused reduction of prepulse inhibition of startle, which reflected the lowering of CNS ability to filter sensory stimulus. The experiment was also carried out using compounds 1.1(9) and 1.8(7).

Assay [6] relates to male mice of BALB/c line. The experiment in a line: Tail suspension test. As to conditions: after 4 days administration in doses of 0.1 mg/kg; 3 minutes; FIG. 13. As for the experimental part:
Antidepressant action of compounds of the general formula 1 in tail suspension test. Experiments were carried out in aged male mice of BALB/c line weighing 20-24 grams. In the test mice were suspended by tail with scotch tape on holder over horizontal surface at a height of about 40 cm, and for 3 minutes the total duration of complete immobility episodes which is considered to be a measure of depressively-like state was registered. Automated computerized detection of motion with video system and Any-maze program were used in test.

Assay [7] deals with Male rats of Vistar line. The experiment in a line: Appetite Control Test. Particulars: dose 10 mg/kg intraperitoneally 60 minutes before the test; 16 h food deprivation; FIG. 10. How it is done: Male rats of Vistar line weighing 230-360 g were housed in standard home cages with water and food available with the exception of short periods of food deprivation (16 hs) just before the Appetite test. The Appetite test was carried out in individual cages with overhead cover made of wire in the niches of which a portion of food granules was inserted. Mass of the granules was examined every 30 minutes for 3 h. On the basis of these measurements food consumption was estimated and stated in grams of food per kilogram of body mass. Placebo and compound 1.5(1) (dose 10 mg/kg) were injected intraperitoneally 60 minutes before the test. Each experimental group of animals consisted of 10 rats. Compound was dissolved in sterilized water. The injection volume was 10 ml/kg. Intact animals which were not undergone food deprivation, and animals after food deprivation, but injected with sterilized water, were used as control. Intact animals which were not undergone food deprivation and injected with sterilized water, were used as control. The experiment was carried out also using compounds 1.1(9) and 1.8(7).

For `CNc1ccc(N2CCNCC2)cc1S(=O)(=O)c1cccc(F)c1` [1.1(9), methyl-[4-piperazin-1-yl-6-(3-fluorophenylsulfonyl)phenyl]-amine], in assay [1], the “Nootropic action (enhancement of memory disturbed by Scopolamine)” value is given as “produce nootropic action more effectively”. Further, the “Anxiolytic (tranquilizing) action” value in assay [2] is “anxiolytic (tranquilizing) activity comparable to the activity of Buspirone and Lorazepam”. The “Antidepressant action: duration of immobile hanging in water (behavioural despaire)” value in assay [3] was “diminish the given parameter”. Besides, the “Nootropic action (enhancement of memory disturbed by MK-801)” value in assay [4] was “produce nootropic action”. The “Antipsychotic activity: prepulse inhibition of startle disturbed by Apomorphine” value in assay [5] is listed as “prevented disturbance of prepulse inhibition of startle caused by Apomorphine”. The “Antidepressant action: total duration of complete immobility” value in assay [6] is “diminish the duration of complete immobility of mice”. In addition, in assay [7], the “Appetite (food consumption) after food deprivation” value is listed as “capable to prevent appetite rising in rats”.

For `CNc1c(S(=O)(=O)c2ccccc2)cnc2c(N3CCNCC3)cccc12` [1.5 (1), methyl-(8-piperazin-1-yl-3-phenylsulfonylquinolin-4-yl)-amine], in assay [1], the “Nootropic action (enhancement of memory disturbed by Scopolamine)” value is “produce nootropic action more effectively”. Also, the “Anxiolytic (tranquilizing) action” value in assay [2] is “anxiolytic (tranquilizing) activity comparable to the activity of Buspirone and Lorazepam”. For the same compound, the “Antidepressant action: duration of immobile hanging in water (behavioural despaire)” value in assay [3] is “diminish the given parameter”. For the same compound, in assay [4], the “Nootropic action (enhancement of memory disturbed by MK-801)” value is “produce nootropic action”. For the same compound, the “Antipsychotic activity: prepulse inhibition of startle disturbed by Apomorphine” value in assay [5] was “prevented disturbance of prepulse inhibition of startle caused by Apomorphine”. Besides, the “Antidepressant action: total duration of complete immobility” value in assay [6] was “diminish the duration of complete immobility of mice”. Besides, the “Appetite (food consumption) after food deprivation” value in assay [7] was “capable to prevent appetite rising in rats”.

For the compound `O=C(CCCN1CCC(O)(c2ccc(Cl)cc2)CC1)c1ccc(F)cc1` [Haloperidol, reference compound], in assay [5], the “Antipsychotic activity: prepulse inhibition of startle disturbed by Apomorphine” value is recorded as “prevented disturbance of prepulse inhibition of startle caused by Apomorphine”.

The record behind these values is patent US8829002B2, “Substituted methyl amines, serotonin 5-HT6 receptor antagonists, methods for production and use thereof” (priority 2010, dated 2014).
